Laboratory results taken from patent publication US9067918B2, “Crystalline forms of 2-(2-methylamino-pyrimidin-4-yl)-1H-indole-5-carboxylic acid [ (S)-1-carbamoyl-2-(phenyl-pyrimidin-2-yl-amino)-ethyl ]-amide” (Sanofi, priority 2011, dated 2015).

Tests used:
Format in all cases: physicochemical
Solubility (qualitative) = conditions: qualitative statement; for solubility compared with polymorph 1: solvent not stated
[1] = Dynamic vapor sorption (DVS), determination of hygroscopicity; conditions: for hygroscopicity, water uptake: at a high relative humidity of 80%; for weight increase in sorption step: 25° C.
Experimental: For the determination of the hygroscopicity, moisture sorption/desorption isotherms were recorded on a Surface Measurement Systems DVS-1 instrument. […] The data were evaluated with the software DVSWin V.2.15. In the DVS analysis of polymorph 1 and polymorph 2 of compound I, in the sorption steps of the two cycles the following weight increases were observed.

Thermogravimetry (TG) = conditions: for TG weight loss: until the melting point
Experimental: Thermogravimetric analyses were performed with a METTLER TGA851e instrument. 100 μl Al-crucibles with sealed lid and hole were used and the measurements performed in a nitrogen gas flow of 50 ml/min. The measured data were evaluated with the software STARe V8.10. TG measurements with infra-red (IR) spectroscopic analysis of volatiles were performed with a METTLER TGA851e instrument as described, which was coupled to a Thermo-Nicolet 380 FT-IR spectrometer equipped with a cell for gas phase measurements. The measured IR spectra were evaluated using the software OMNIC V.7.3. In the TG analyses of polymorph 1 and polymorph 2 of compound I until the melting point, insignificant weight losses of 0.2% and 0.7%, respectively, were observed. In the TG analysis of hydrate 1 of compound I, a gradual weight loss of 6.4% was observed between room temperature and 120° C. […] The observed weight loss corresponds to about 1.9 mol of water per mol of 2-(2-methylamino-pyrimidin-4-yl)-1H-indole-5-carboxylic acid [(S)-1-carbamoyl-2-(phenyl-pyrimidin-2-yl-amino)-ethyl]-amide. In the TG FT-IR analysis of hydrate 2 of compound I, a weight loss of 17-18% of water mainly in two steps was observed between room temperature and 140° C., which corresponds to about 6 mol of water per mol of 2-(2-methylamino-pyrimidin-4-yl)-1H-indole-5-carboxylic acid [(S)-1-carbamoyl-2-(phenyl-pyrimidin-2-yl-amino)-ethyl]-amide.

[2] = Determination of solubility in a mixture of acetone and water (4:1, by volume); conditions: acetone/water 4:1 by volume
Experimental: For the determination of the solubility in a mixture of acetone and water (4:1, by volume), samples of 0.5 mg to 50 mg of the test substances were suspended in a defined amount of the solvent (800 mg to 1200 mg) in screw cap vials with a magnetic stirring bar, which were placed in a temperature-controlled multiple stirring device equipped for transmission measurement (Avantium Crystal 16). With stirring at 700 rpm, the vials were cooled from room temperature to 0° C. and then heated to 60° C. with a heating rate of 3° C./h, kept at 60° C. for 2 h and cooled again to 0° C. with a cooling rate of 3° C./h. By means of transmission measurement it was determined whether the sample was dissolved (100% transmission), or crystals were present. For polymorph 1, polymorph 2, hydrate 1 and hydrate 2 of compound I the following solubilities in a mixture of acetone and water (4:1, by volume) were determined.

[3] = Maturation experiments (slurry conversion), relative stability of crystalline forms
Experimental: By maturation experiments (slurry conversion) at 20° C. the relative stability of polymorphs 1 and 2 and hydrate 1 was investigated.
A polymorph mixture of 81 mg (Mixture of Polymorph 1 and Polymorph 2), 83 mg of Polymorph 1 and 60 mg of hydrate 1 was prepared. The mixture was subjected to XRPD analysis to confirm the presence of all three polymorphs and then distributed into five capillaries. These samples were kept in suspension at 20° C. for five days. After X-ray powder diffraction measurement of the suspensions these were dried over night at 40° C. and <100 mbar and again subjected to X-ray diffraction. Maturation experiments (a) to (e) were performed under the specified conditions, starting with the polymorph mixture described above.

[4] = relative humidity 40%, first value (cycle 1)
[5] = relative humidity 40%, second value (cycle 2)
[6] = relative humidity 60%, first value (cycle 1)
[7] = relative humidity 60%, second value (cycle 2)
[8] = relative humidity 80%, first value (cycle 1)
[9] = relative humidity 80%, second value (cycle 2)
[10] = relative humidity 95%, first value (cycle 1)
[11] = relative humidity 95%, second value (cycle 2)

Row | SMILES | solubility compared with polymorph 1 (Solubility (qualitative)) | hygroscopicity, water uptake [1] | weight increase in sorption step [1, 4] | weight increase in sorption step [1, 5] | weight increase in sorption step [1, 6] | weight increase in sorption step [1, 7] | weight increase in sorption step [1, 8] | weight increase in sorption step [1, 9] | weight increase in sorption step [1, 10] [%] | weight increase in sorption step [1, 11] [%] | TG weight loss (Thermogravimetry (TG)) [%] | further results
1 | CNc1nccc(-c2cc3cc(C(=O)N[C@@H](CN(c4ccccc4)c4ncccn4)C(N)=O)ccc3[nH]2)n1 [Hydrate 1, 2-(2-methylamino-pyrimidin-4-yl)-1H-indole-5-carboxylic acid [(S)-1-carbamoyl-2-(phenyl-pyrimidin-2-yl-amino)-ethyl]-amide dihydrate] | higher solubility than polymorph 1 | – | – | – | – | – | – | – | – | – | – | hygroscopicity ([1]; qualitative statement): low hygroscopicity; TG weight loss (water) (Thermogravimetry (TG); between room temperature and 120° C.): 6.4%; Solubility [g in 100 g of solvent] ([2]; 38.6° C.): 2.11 g in 100 g of solvent; Solubility [g in 100 g of solvent] ([2]; 49.7° C.): 3.39 g in 100 g of solvent; Solubility [g in 100 g of solvent] ([2]; 57.4° C.): 5.04 g in 100 g of solvent
2 | CNc1nccc(-c2cc3cc(C(=O)N[C@@H](CN(c4ccccc4)c4ncccn4)C(N)=O)ccc3[nH]2)n1 [Hydrate 2, 2-(2-methylamino-pyrimidin-4-yl)-1H-indole-5-carboxylic acid [(S)-1-carbamoyl-2-(phenyl-pyrimidin-2-yl-amino)-ethyl]-amide hexahydrate] | – | – | – | – | – | – | – | – | – | – | – | TG weight loss (water) (Thermogravimetry (TG); between room temperature and 140° C., mainly in two steps): 17-18%; Solubility [g in 100 g of solvent] ([2]; 36.8° C.): 0.50 g in 100 g of solvent; Solubility [g in 100 g of solvent] ([2]; 46.1° C.): 1.02 g in 100 g of solvent; Solubility [g in 100 g of solvent] ([2]; 55.9° C.): 2.61 g in 100 g of solvent
3 | CNc1nccc(-c2cc3cc(C(=O)N[C@@H](CN(c4ccccc4)c4ncccn4)C(N)=O)ccc3[nH]2)n1 [Polymorph 1, 2-(2-methylamino-pyrimidin-4-yl)-1H-indole-5-carboxylic acid [(S)-1-carbamoyl-2-(phenyl-pyrimidin-2-yl-amino)-ethyl]-amide] | – | about 0.9% | 0.5%/0.5% | 0.5%/0.5% | 0.6%/0.6% | 0.6%/0.6% | 0.9%/0.9% | 0.9%/0.9% | 1.3 | 1.4 | 0.2 | thermodynamic stability among the polymorphs ([3]; at temperatures above about 20° C., confirmed in phase conversion experiments): thermodynamically most stable polymorph; thermodynamic stability among polymorphs 1, 2 and hydrate 1 ([3]; maturation experiments (a) to (e) at 20° C.): thermodynamically most stable; solubility in water (Solubility (qualitative)): low solubility in water; Solubility [g in 100 g of solvent] ([2]; 36.9° C.): 0.43 g in 100 g of solvent; Solubility [g in 100 g of solvent] ([2]; 44.7° C.): 0.50 g in 100 g of solvent; Solubility [g in 100 g of solvent] ([2]; 60.0° C.): 0.85 g in 100 g of solvent
4 | CNc1nccc(-c2cc3cc(C(=O)N[C@@H](CN(c4ccccc4)c4ncccn4)C(N)=O)ccc3[nH]2)n1 [Polymorph 2, 2-(2-methylamino-pyrimidin-4-yl)-1H-indole-5-carboxylic acid [(S)-1-carbamoyl-2-(phenyl-pyrimidin-2-yl-amino)-ethyl]-amide] | higher solubility than polymorph 1 | about 0.4% | 0.2% | 0.0% | 0.3% | 0.1% | 0.4% | 0.3% | 0.8 | 0.6 | 0.7 | Solubility [g in 100 g of solvent] ([2]; 46.0° C.): 1.02 g in 100 g of solvent; Solubility [g in 100 g of solvent] ([2]; 57.5° C.): 2.48 g in 100 g of solvent
